Values after ≈ are worked out from the molar mass of the structure shown.
What was measured:
Assay type in all cases: functional
Fusarium solani = test: Antimicrobial activity against Fusarium solani after 48 hrs by broth microdilution assay
Fusarium oxysporum = test: Antimicrobial activity against Fusarium oxysporum after 48 hrs by broth microdilution assay
Fusarium subglutinans = test: Antimicrobial activity against Fusarium subglutinans after 48 hrs by broth microdilution assay
Fusarium verticillioides = test: Antimicrobial activity against Fusarium verticillioides after 48 hrs by broth microdilution assay
Fusarium proliferatum = test: Antimicrobial activity against Fusarium proliferatum after 48 hrs by broth microdilution assay

SMILES	MIC (Fusarium solani)	MIC (Fusarium oxysporum)	MIC (Fusarium subglutinans)	MIC (Fusarium verticillioides)	MIC (Fusarium proliferatum)
C[C@@H]1[C@H](O)[C@@H](C)/C=C/C=C/C=C/C=C/C=C/C=C/C=C/[C@H](O[C@@H]2O[C@H](C)[C@@H](O)[C@H](N)[C@@H]2O)C[C@@H]2O[C@](O)(C[C@@H](O)C[C@@H](O)[C@H](O)CC[C@@H](O)C[C@@H](O)CC(=O)O[C@H]1C)C[C@H](O)[C@H]2C(=O)O [AMPHOTERICIN B]	1.25 µg/mL (≈ 1.35 µM)	2.3 µg/mL (≈ 2.49 µM)	3.3 µg/mL (≈ 3.57 µM)	1.53 µg/mL (≈ 1.66 µM)	1.7 µg/mL (≈ 1.84 µM)
CCC(C)n1ncn(-c2ccc(N3CCN(c4ccc(OCC5COC(Cn6cncn6)(c6ccc(Cl)cc6Cl)O5)cc4)CC3)cc2)c1=O (stereo not given) [ITRACONAZOLE]	> 16 µg/mL	> 16 µg/mL	10.8 µg/mL (≈ 15.3 µM)	3.33 µg/mL (≈ 4.72 µM)	> 16 µg/mL
CC[C@@H]([C@H](C)O)n1ncn(-c2ccc(N3CCN(c4ccc(OC[C@@H]5CO[C@@](Cn6cncn6)(c6ccc(F)cc6F)C5)cc4)CC3)cc2)c1=O [POSACONAZOLE]	15.2 µg/mL (≈ 21.7 µM)	2.7 µg/mL (≈ 3.85 µM)	10.8 µg/mL (≈ 15.3 µM)	0.46 µg/mL (≈ 0.656 µM)	6.4 µg/mL (≈ 9.13 µM)
C[C@@H](c1ncncc1F)[C@](O)(Cn1cncn1)c1ccc(F)cc1F [VORICONAZOLE]	9.21 µg/mL (≈ 26.4 µM)	4 µg/mL (≈ 11.5 µM)	5.6 µg/mL (≈ 16 µM)	1.74 µg/mL (≈ 4.98 µM)	4.2 µg/mL (≈ 12 µM)

Reference: ChEMBL document CHEMBL1255374, “Species distribution and in vitro antifungal susceptibility patterns of 75 clinical isolates of Fusarium spp. from northern Italy” (2008)
